ChEMBL document CHEMBL1671721, “Chemical validation of phosphodiesterase C as a chemotherapeutic target in Trypanosoma cruzi, the etiological agent of Chagas' disease” (Antimicrob Agents Chemother, 2010)
The source made the active and inactive calls. The rule behind the calls is not given here.

Legend:
[1] = molecular target: T1, Cyclic nucleotide specific phosphodiesterase (Trypanosoma cruzi) (UniProt Q53I59); assay: Inhibition of Trypanosoma cruzi Y PDEC assessed as cAMP accumulation at 4.5 to 45 uM after 1 to 5 mins by luminescence spectrophotometry
T1 sequence (whole entry): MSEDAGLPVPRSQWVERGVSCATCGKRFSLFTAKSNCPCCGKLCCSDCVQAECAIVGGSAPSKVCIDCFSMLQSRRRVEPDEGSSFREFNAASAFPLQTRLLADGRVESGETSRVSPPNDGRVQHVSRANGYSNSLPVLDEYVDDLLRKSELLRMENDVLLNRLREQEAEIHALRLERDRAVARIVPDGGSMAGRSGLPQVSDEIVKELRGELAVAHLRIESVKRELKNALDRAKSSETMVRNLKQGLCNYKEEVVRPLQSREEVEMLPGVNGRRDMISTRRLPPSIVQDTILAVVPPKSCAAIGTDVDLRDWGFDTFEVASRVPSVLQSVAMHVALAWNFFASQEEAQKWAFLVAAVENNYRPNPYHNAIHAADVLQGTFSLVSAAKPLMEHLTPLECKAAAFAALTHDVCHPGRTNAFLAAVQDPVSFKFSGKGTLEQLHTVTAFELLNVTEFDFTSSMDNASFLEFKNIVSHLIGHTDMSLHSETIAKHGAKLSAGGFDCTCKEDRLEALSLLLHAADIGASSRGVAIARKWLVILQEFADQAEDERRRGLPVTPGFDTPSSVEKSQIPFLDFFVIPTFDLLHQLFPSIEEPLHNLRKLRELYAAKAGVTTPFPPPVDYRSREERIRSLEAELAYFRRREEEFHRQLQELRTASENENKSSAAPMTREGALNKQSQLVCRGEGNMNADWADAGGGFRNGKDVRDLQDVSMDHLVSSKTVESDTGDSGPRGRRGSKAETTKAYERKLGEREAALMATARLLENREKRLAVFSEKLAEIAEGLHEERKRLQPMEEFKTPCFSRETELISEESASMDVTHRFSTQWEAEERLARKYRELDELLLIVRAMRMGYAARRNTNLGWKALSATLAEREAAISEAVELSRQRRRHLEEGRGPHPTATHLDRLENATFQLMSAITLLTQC

[2] = molecular target: T1, Cyclic nucleotide specific phosphodiesterase (Trypanosoma cruzi); assay: Inhibition of Trypanosoma cruzi Y PDEC assessed as cAMP accumulation at 43 uM after 1 to 5 mins by luminescence spectrophotometry
[3] = molecular target: T1, Cyclic nucleotide specific phosphodiesterase (Trypanosoma cruzi); assay: Inhibition of Trypanosoma cruzi Y PDEC assessed as cAMP accumulation at 26 uM after 1 to 5 mins by luminescence spectrophotometry
[4] = Cytotoxicity against rat L6E9 myoblasts at 1 to 25 uM
Trypanosoma cruzi [5] = assay: Antimicrobial activity against Trypanosoma cruzi Y infected in rat L6E9 myoblasts assessed as inhibition of [5,6-3H]uracil incorporation after 3 days postinfection by scintillation counter; type: functional, organism-based
Phosphodiesterase 4 = Phosphodiesterase 4 (Homo sapiens, UniProt P27815+Q08499+Q07343+Q08493); assay: Inhibition of human PDE4 after 30 mins; type: protein assay
[6] = molecular target: T1, Cyclic nucleotide specific phosphodiesterase (Trypanosoma cruzi); assay: Inhibition of Trypanosoma cruzi Y PDEC assessed as cAMP accumulation at 90 uM after 1 to 5 mins by luminescence spectrophotometry
[7] = molecular target: T2, Cyclic nucleotide specific phosphodiesterase (Trypanosoma cruzi, UniProt Q53I59); assay: Inhibition of Trypanosoma cruzi Y PDEC after 30 mins
T2 sequence (Q53I59 whole entry): T1 sequence (whole entry)

[8] = Cytotoxicity against rat L6E9 myoblasts at >10 uM
[9] = Cytotoxicity against rat L6E9 myoblasts upto 1 uM
[10] = molecular target: T1, Cyclic nucleotide specific phosphodiesterase (Trypanosoma cruzi); assay: Inhibition of Trypanosoma cruzi Y PDEC assessed as volume recovery preincubated with 8.7 uM compound measured after 10 mins by light scattering
[11] = molecular target: T1, Cyclic nucleotide specific phosphodiesterase (Trypanosoma cruzi); assay: Inhibition of Trypanosoma cruzi Y PDEC assessed as decrease in osmolarity preincubated with 8.7 uM compound measured after 10 mins by light scattering
Trypanosoma cruzi [12] = assay: Antimicrobial activity against Trypanosoma cruzi infected in rat L6E9 myoblasts assessed as inhibition of [3H]uracil incorporation by giemsa staining; settings: L6E9, 3 h
[13] = Cytotoxicity against rat L6E9 myoblasts at >25 uM
Trypanosoma cruzi [14] = assay: Antimicrobial activity against Trypanosoma cruzi Y infected in L6E9 myoblasts assessed as inhibition of [3H]uracil incorporation at 1 uM after 3 hrs postinfection by scintillation counter; type: functional; set-up: scale not given: the % may be the effect or the level left
Trypanosoma cruzi [15] = assay: Antimicrobial activity against Trypanosoma cruzi Y infected in L6E9 myoblasts assessed as inhibition of [3H]uracil incorporation at 25 uM after 3 hrs postinfection by scintillation counter; type: functional; set-up: scale not given: the % may be the effect or the level left

Row | SMILES | Activity [4] | IC50 (Trypanosoma cruzi [5]) [µM] | IC50 (Phosphodiesterase 4) [µM] | IC50 [7] [µM] | other results
1 | CCCCC(=O)c1ccc(OC2CCOCC2)c(OC)c1 | Non-toxic | 5.2 | 71 | 3.5 | inhibition [1]: Active; inhibition [2]: Active; inhibition [3]: Active; inhibition [6]: Active
2 | O=C(Cn1nnc(N2CCCC2)n1)N/N=C/c1ccncc1 | Non-toxic | – | – | > 10 | Activity [8]: Toxic
3 | CCOC(=O)Cc1csc(NC(=O)Nc2ccc(Cl)c(Cl)c2)n1 | Non-toxic | – | – | 3.6 | Activity [9]: Toxic
4 | CCCC(=O)c1ccc(OC2CCN(C(=O)OC(C)(C)C)CC2)c(OC)c1 | Non-toxic | 3.3 | 29 | 6.5 | inhibition [1]: Active; inhibition [10]: inactive; inhibition [2]: Active; inhibition [3]: Active; inhibition [6]: Active; inhibition [11]: inactive
5 | O=C(Nc1ccc(S(=O)(=O)N2CCCCC2)cc1)NC1CCCC1 | Non-toxic | – | – | > 10 | Activity [9]: Toxic
6 | CC1CS(=O)(=O)CCN1/N=C/c1ccc([N+](=O)[O-])o1 (stereo unspecified) [NIFURTIMOX] | – | – | – | – | IC50 (Trypanosoma cruzi [12]): 2.8 µM
7 | CSc1noc(-c2ccc(S(=O)(=O)NCc3ccccc3)s2)c1C#N | Non-toxic | – | – | 4.3 | Activity [13]: Toxic
8 | CCCCC(=O)c1ccc(OC2CCOC2)c(OC)c1 (stereo unspecified) | Non-toxic | 1.8 | 100 | 5.1 | inhibition [1]: Active; inhibition [2]: Active; inhibition [3]: Active; inhibition [6]: Active
9 | O=S(=O)(Cc1noc(-c2ccno2)n1)Cc1ccco1 | Non-toxic | – | – | 4.5 | Activity [9]: Toxic
10 | CCOC(=O)c1csc(COc2ccc(C3SCCS3)cc2)n1 | Non-toxic | – | – | > 10 | Activity [13]: Toxic
11 | O=C(Cn1ccnc1[N+](=O)[O-])NCc1ccccc1 [BENZNIDAZOLE] | – | – | – | – | IC50 (Trypanosoma cruzi [12]): 3.7 µM
12 | CCCC(O)c1ccc(OC)c(OC2CCOC2)c1 (stereo unspecified) | Non-toxic | 471 | 100 | > 10 | –
13 | CCCC(O)c1ccc(OC)c(OC2CCOCC2)c1 (stereo unspecified) | Non-toxic | 10 | 100 | > 10 | –
14 | COc1ccc(C(=O)CC2CCCCC2)cc1OC1CCOC1 (stereo unspecified) | Non-toxic | 1.7 | 2.6 | 4.9 | –
15 | CC(C)CC(=O)c1ccc(OC(F)F)c(OC2CCCC2)c1 | Non-toxic | 3.6 | 0.022 | 3.2 | –
16 | O=S(=O)(Cc1noc(CSc2ccc(Cl)cc2)n1)c1ccccn1 | Non-toxic | – | – | > 10 | Activity [8]: Toxic
17 | O=C(CCc1ccccc1)c1ccc(OC(F)F)c(OC(F)F)c1 | Non-toxic | 2.3 | 0.082 | 2.2 | –
18 | O=C(CC1CCCCC1)c1ccc(OC(F)F)c(OC(F)F)c1 | Non-toxic | 5.7 | 5.2 | 5.4 | –
19 | COc1ccc(C(=O)CCC2CCCCC2)cc1OC1CCOC1 (stereo unspecified) | Non-toxic | 6.1 | 1.9 | > 10 | –
20 | CCCC(=O)c1ccc(OC2CCOCC2)c(OC)c1 | Non-toxic | 4 | 60 | 4 | –
21 | O=C(CC1CCCCC1)c1ccc(OC(F)F)c(OC2CCOC2)c1 (stereo unspecified) | Non-toxic | 4.4 | 0.667 | 2.5 | –
22 | O=C(Nc1csc2ccccc12)NC1Cc2ccccc2C1 | Non-toxic | – | – | > 10 | Activity [13]: Toxic
23 | CCCC(=O)c1ccc(OC(F)F)c(OC2CCOCC2)c1 | Non-toxic | 1.6 | 0.35 | 4.8 | inhibition [1]: Active; inhibition [2]: Active; inhibition [3]: Active; inhibition [6]: Active
24 | O=C1c2ccccc2C(=O)N1Cc1csc(-c2cccs2)n1 | – | – | – | 4.1 | Activity (Trypanosoma cruzi [14]): 51%; Activity (Trypanosoma cruzi [15]): 98%
25 | O=C(CCC1CCCCC1)c1ccc(OC(F)F)c(OC2CCOC2)c1 (stereo unspecified) | Non-toxic | 5.8 | 1.1 | 5.3 | –
26 | O=S(=O)(Cc1noc(-c2ccc(Cl)cc2)n1)c1ccccn1 | Non-toxic | – | – | 2.4 | Activity [9]: Toxic
